Measured values as given in article PMC2705510, “Measurement of Nanomolar Dissociation Constants by Titration Calorimetry and Thermal Shift Assay – Radicicol Binding to Hsp90 and Ethoxzolamide Binding to CAII” (2009).

Molecular target: T1, Hsp90αN (N-terminal domain of human Hsp90α) (Homo sapiens, UniProt P07900)
T1 construct: gene HSP90AA1; N-terminal domain, amino acids 3–241, N-terminal His6 tag
Experiment: ITC; weak ligand displaced by radicicol (association constant Kb given)
Format: binding

For `COCCOC(=O)c1ccc(O)cc1O` [compound 1], the Kd was 50 µM.
